Test results reported in patent US11980772B2, “Method of photodynamic therapy (PDT) for bladder cancer” (priority 2015, dated 2024).
Where “and” joins values, the source holds several entries; their conditions need not be identical. Equal entries are not always repeated. Entries after “also recorded” stand apart in the source; their conditions may differ.

Experiments:
[1] = tested on: bladder cancer; details: cited from earlier work
[2] = tested on: bladder cancer; details: 5-ALA instilled, red light 633 nm, 30 and 50 J/cm^2; cited from earlier work
[3] = tested on: bladder cancer; details: 5-ALA PDT after mitomycin, red laser light 635 nm, 18 mW/cm^2; cited from earlier work
[4] = tested on: patient-derived bladder tumor; test: Establishing in vitro primary cell cultures from bladder tumors resected after HAL/blue light TUR; type: cell-based, human; details: HAL/blue light group; blue light 1.5 to 12.5 mW/cm^2, 0.2 to 15.0 J/cm^2
Experimental: A solution of HAL (Hexvix®) was instilled into the bladder of patients through a catheter and was left in the bladder for about 1 hour. If the patient could not retain the composition for about 1 hour, at least about 1 hour was allowed to pass from the instillation of Hexvix® to the start of exposing the inside of the bladder to light. After evacuation of Hexvix®, a commercially available blue-light cystoscope was inserted into the bladder and a TUR was carried out by exposing the inside of the bladder to white light for the visual inspection, subsequent blue light exposure for fluorescence detection of bladder cancer lesions, resection of the detected lesions under white light and monitoring of the completeness of the resection by use of blue light. Blue light was provided at a fluence rate of 1.5 to 12.5 mW/cm^2 and a light dose of 0.2 to 15.0 J/cm^2 […] at a fluence rate of 3.0 to 22.0 mW/cm^2 and a light dose of 0.4 to 26.5 J/cm^2.
The resected bladder tumors were processed according to methods known in the art and primary cell cultures were established from said patient-derived bladder tumor under appropriate conditions in culture medium. […]

[5] = tested on: bladder cancer; details: patients with HAL-guided TUR prior to cystectomy, Kaplan-Meier, cited from earlier work
[6] = tested on: superficial bladder tumors (rat bladder carcinoma cell line); test: PDT with HAL and blue light in orthotopic rat bladder tumor model; type: in vivo; details: HAL 2 mg/ml (8 mM), 1 hour
Experimental: A rat bladder carcinoma cell line was used in these experiments to establish superficial bladder tumors in Female Fischer rats weighing 150-175 g as described in Francois, et al., J. Urol. 190(2), 2013, 731-736. The animals were used in the experiments 5 days after tumor cell inoculation.
Lyophilized HAL (in the form of Hexvix® powder) was dissolved in PBS to a final concentration of 2 mg/ml (8 mM). 0.5 ml of the solution was instilled into the rat bladder and was left in the bladder for about 1 hour. After evacuation of the HAL solution, 0.5 ml of PBS was instilled into the bladder and whole bladder irradiation with blue light at a fluence rate of 3.5 or 7.0 mW/cm^2 was performed using a 170 mW Modulight laser model ML 6500-405 delivering light at a wavelength of 401 nm, coupled to a fiber with a cylindrical diffuser (1×5 mm) model RD05/500/800 (Medlight, Ecublens, Switzerland) placed in a central position in the bladder. Rats received a blue light dose of 4.0 J/cm^2 (fluence rate 3.5 mW/cm^2) or 7.5 J/cm^2 (fluence rate 7.0 mW/cm^2)
For control, no Hexvix was instilled and only blue light irradiation was carried out at the aforementioned fluence rates/light doses.
The rats were sacrificed 48 hours after illumination by an overdose of pentobarbital. […]

[7] = tested on: non-muscle invasive papillary bladder cancer (NMIBC); test: Phase III multicenter study, tumor recurrence after HAL blue light cystoscopy/TUR; type: in vivo, human; details: 9 months follow-up; for Tumor recurrence rate, All: HAL group (n = 271)
Experimental: A prospective, randomized, comparative, controlled phase III multicenter study was carried out in patients with non-muscle invasive papillary bladder cancer (NMIBC). The study population comprised 551 patients which were randomized into two groups (see below). The groups were similar in age, gender, race, bladder cancer history and prior intravesical therapy.
HAL group: 271 patients. The method of the invention was carried out as follows: A solution of HAL (Hexvix®) was instilled into the bladder of patients through a catheter and was left in the bladder for about 1 hour. If the patient could not retain the composition for about 1 hour, at least about 1 hour was allowed to pass from the instillation of Hexvix® to the start of exposing the inside of the bladder to light.
After evacuation of Hexvix®, cystoscopy was carried out with a commercially available cystoscope (blue and white light). The inside of the bladder was first exposed to white light and visually assessed, followed by exposure to blue light to detect cancerous lesions in the bladder. Transurethral resection (TUR) of the detected lesions was carried out under white light and completion of the resection was assessed under blue light.
White light group: 280 patients. Cystoscopy and TUR of bladder cancer under white light only, no HAL.
Patients from both groups with histologically confirmed Ta or T1 lesions were followed up by white light cystoscopy after 3, 6 and 9 months. All tumor recurrences during the 9 months follow-up period were histologically confirmed.
50 patients in the HAL group (18.5%) and 55 patients in the white light group (19.6%) received BCG treatment during the 9 months follow-up period. BCG (Bacillus Calmette-Guérin) is an immunotherapy agent for the treatment of bladder cancer. It is usually repeatedly instilled into the bladder.
Mitomycin is a chemotherapeutic agent for the treatment of bladder cancer. It may be instilled after TUR (single instillation) to e.g. prevent tumor cell seeding, i.e. re-attachment to the bladder wall of tumor cells which were dislocated during resection. Mitomycin was administered after TUR to 16 patients in the HAL group (5.9%) and to 20 patients in the white light group (7.1%).

[8] = tested on: bladder cancer; details: cited from earlier work; remark: listed apart in the source
[9] = tested on: MIBC; details: neoadjuvant cisplatin-containing chemotherapy; cited from earlier work

SMILES: NCC(=O)CCC(=O)O [5-ALA, 5-aminolevulinic acid]
- complaints of urinary frequency and urgency, occurrence ([1]; 5-ALA, white light 100 J/cm^2, 12 patients treated): all patients complained about urinary frequency and urgency
- patients whose symptoms persisted for 3 weeks ([1]; of 12 patients treated): 5 patients
- patients whose symptoms subsided within a week ([1]; of 12 patients treated): 7 patients
- patients whose irritating urinary symptoms did not resolve before 2 weeks [2]: 13%
- side effects in the form of irritating urinary symptoms, occurrence [2]: occurred in all patients
- light dose considered the upper limit of tolerability in terms of side effects [3]: 25 J/cm^2

SMILES: CCCCCCOC(=O)CCC(=O)CN [HAL, n-hexyl 5-amino-4-oxo-pentanoate]
- establishment of in vitro primary cell cultures from resected bladder tumors [4]: No in vitro primary cell cultures could be established
- 3-year overall survival (OS) ([5]; 56.6% with white light): 65.0%
- 3-year recurrence-free survival (RFS) ([5]; 58.2% with white light TUR alone): 69.8%
- bladder histology 48 hours after illumination (PDT effect) ([6]; blue light 3.5 mW/cm^2, 4 J/cm^2, n=2, one animal (50%) each): no inflammation, persistent and chorion infiltrating tumors; also recorded: looked less compact and the superficial layer of said tumor was destroyed
- bladder histology 48 hours after illumination (PDT effect) ([6]; blue light 7.0 mW/cm^2, 7.5 J/cm^2, n=2): increased tissue thickness/inflammation (both signs of PDT effect) and disintegrating/less compact tumor tissue
- Tumor recurrence rate, All ([7]; Table 1 and text): 42.7% and 47.2%
- Tumor recurrence rate, All ([7]; Table 2): 47.2%
- Tumor recurrence rate, Received BCG and/or mitomycin ([7]; HAL group): 41.5%
- Tumor recurrence rate, Received no BCG and/or mitomycin ([7]; HAL group): 49.0%
- Tumor recurrence rate, No BCG ([7]; HAL group, patients who did not receive BCG): 49.3%
- Tumor recurrence rate, Received BCG ([7]; HAL group, patients who received BCG): 38.0%
- patients tumor-free at 21 months ([8]; 2 of 17 patients): 11.8%
- patients tumor-free at 9 months ([8]; 4 of 17 patients): 23.5%
- patients with severe adverse effects ([8]; 4 patients of 17): 23.5%
- patients tumor-free at 6 months ([8]; 9 of 17 patients): 52.9%
- number of adverse effects reported ([8]; HAL 8 mM and 16 mM, white light 25-100 J/cm^2, 3 PDTs, 17 patients): 128
- patients with adverse effects ([8]; HAL 8 mM and 16 mM, white light, 3 PDTs): about 88%
- number of severe adverse effects reported ([8]; in 4 patients, 2 considered to relate to the PDT): 7

SMILES: N.N.[Cl][Pt][Cl] [cisplatin]
- absolute improvement in survival at 5 years [9]: 5%
